Results from ChEMBL document CHEMBL1201862, “PubChem BioAssay data set” (2004).
One block for each molecule: values may come before it. Calls of active or inactive are those of the source.

What was measured:
[1] = biological target: Hepatocyte nuclear factor 4-alpha (Homo sapiens, UniProt P41235); assay type: functional, cell-based;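 note: biochemical luminescence-based dose-response counterscreen measuring inhibition of HNF4 dimerization, run alongside a screen for blockers of ABHD5–perilipin-5 interaction; split luciferase complementation of HNF4 fusion proteins in cell lysate measuring dimerization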
Hepatocyte nuclear factor 4-alpha, sequence (P41235 whole entry, the tested form may be a part): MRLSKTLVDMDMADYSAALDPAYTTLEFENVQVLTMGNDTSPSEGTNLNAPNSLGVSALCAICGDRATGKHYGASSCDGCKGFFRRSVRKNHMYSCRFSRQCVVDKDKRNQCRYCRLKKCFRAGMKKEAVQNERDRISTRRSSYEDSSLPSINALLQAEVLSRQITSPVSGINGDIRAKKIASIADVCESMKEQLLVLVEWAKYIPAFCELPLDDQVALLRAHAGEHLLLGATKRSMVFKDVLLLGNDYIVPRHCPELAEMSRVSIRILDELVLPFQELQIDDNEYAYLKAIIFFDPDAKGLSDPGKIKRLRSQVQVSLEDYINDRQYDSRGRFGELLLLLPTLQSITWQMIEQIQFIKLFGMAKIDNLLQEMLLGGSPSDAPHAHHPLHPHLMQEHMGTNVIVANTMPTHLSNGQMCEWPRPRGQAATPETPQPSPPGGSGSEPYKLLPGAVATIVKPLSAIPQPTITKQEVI

[2] = biological target: Potassium voltage-gated channel subfamily KQT member 2 (Rattus norvegicus, UniProt O88943); test: blockers of KCNQ2 channel current – cell-based, automated electrophysiology, set II, rat KCNQ2, dose response (AID 588637); assay type: functional
Potassium voltage-gated channel subfamily KQT member 2, sequence (O88943 whole entry): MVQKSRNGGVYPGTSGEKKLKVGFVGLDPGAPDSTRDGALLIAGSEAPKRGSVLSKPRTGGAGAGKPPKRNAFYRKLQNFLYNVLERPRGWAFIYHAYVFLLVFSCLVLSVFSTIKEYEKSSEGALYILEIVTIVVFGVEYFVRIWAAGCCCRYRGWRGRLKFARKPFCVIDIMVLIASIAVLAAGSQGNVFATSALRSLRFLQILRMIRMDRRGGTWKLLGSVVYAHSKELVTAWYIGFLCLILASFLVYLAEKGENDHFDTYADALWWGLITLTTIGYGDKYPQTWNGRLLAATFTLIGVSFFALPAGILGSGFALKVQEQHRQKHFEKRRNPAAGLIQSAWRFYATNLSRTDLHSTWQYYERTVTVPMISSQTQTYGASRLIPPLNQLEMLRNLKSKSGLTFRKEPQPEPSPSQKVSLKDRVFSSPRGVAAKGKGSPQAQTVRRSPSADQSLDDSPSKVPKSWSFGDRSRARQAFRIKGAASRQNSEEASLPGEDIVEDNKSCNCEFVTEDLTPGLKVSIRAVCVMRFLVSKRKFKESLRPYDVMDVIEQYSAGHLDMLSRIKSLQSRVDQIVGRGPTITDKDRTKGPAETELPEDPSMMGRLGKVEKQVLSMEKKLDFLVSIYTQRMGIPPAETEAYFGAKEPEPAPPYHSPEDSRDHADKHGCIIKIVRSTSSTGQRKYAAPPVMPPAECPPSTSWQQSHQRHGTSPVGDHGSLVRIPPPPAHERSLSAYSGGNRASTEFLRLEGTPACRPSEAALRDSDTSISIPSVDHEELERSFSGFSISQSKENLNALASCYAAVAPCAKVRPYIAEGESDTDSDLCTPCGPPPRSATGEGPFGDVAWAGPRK

[3] = biological target: T1, ATP-dependent translocase ABCB1 (Homo sapiens, UniProt P08183); test: inhibition of BCRP-mediated JC-1 efflux – Ig-MXP3 cells, flow cytometry, set 2, dose response (AID 504566); assay type: functional; settings: read-out: EC50_MICROM_;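 note: flow cytometry median green fluorescence of retained JC-1 dye; potency of efflux pump inhibition measured as rising substrate retention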
T1 sequence (P08183 whole entry): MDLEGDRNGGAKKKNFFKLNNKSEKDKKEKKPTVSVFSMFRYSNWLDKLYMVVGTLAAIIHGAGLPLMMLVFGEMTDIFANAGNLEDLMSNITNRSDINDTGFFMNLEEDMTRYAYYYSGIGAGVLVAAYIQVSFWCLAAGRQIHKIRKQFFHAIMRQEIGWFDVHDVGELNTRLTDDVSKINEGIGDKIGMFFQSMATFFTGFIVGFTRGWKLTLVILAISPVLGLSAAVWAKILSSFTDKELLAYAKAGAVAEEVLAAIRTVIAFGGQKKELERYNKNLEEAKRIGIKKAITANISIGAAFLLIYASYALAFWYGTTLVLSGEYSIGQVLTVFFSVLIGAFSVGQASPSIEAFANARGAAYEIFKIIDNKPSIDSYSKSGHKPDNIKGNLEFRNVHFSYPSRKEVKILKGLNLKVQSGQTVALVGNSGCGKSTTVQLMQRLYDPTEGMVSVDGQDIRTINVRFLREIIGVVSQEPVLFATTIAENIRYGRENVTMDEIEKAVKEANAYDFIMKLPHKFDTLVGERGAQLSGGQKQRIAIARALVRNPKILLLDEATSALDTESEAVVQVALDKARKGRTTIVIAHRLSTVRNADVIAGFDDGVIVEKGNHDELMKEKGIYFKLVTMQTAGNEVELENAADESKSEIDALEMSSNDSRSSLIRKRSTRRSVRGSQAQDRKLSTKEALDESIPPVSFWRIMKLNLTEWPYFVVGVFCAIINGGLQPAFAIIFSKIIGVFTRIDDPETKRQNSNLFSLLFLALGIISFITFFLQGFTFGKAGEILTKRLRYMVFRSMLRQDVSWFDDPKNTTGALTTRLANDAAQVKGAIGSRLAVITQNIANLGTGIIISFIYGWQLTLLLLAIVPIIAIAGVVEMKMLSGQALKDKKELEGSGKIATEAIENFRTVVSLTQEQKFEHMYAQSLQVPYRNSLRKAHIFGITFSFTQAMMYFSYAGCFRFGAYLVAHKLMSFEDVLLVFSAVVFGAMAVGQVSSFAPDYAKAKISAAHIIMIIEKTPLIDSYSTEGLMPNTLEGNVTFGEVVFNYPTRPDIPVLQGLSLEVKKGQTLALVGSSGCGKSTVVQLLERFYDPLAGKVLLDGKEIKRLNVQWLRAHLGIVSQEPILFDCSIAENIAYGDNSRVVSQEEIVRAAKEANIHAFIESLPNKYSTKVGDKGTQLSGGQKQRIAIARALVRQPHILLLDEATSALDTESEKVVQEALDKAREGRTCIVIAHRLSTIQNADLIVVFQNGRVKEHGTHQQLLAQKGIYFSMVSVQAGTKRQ

[4] = biological target: T1, ATP-dependent translocase ABCB1; test: P-gp JC-1 efflux blockade concentration-response – Jurkat-DNR cells, flow cytometry, set 2, dose response (AID 504569); assay type: functional; settings: read-out: EC50_MICROM_;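 note: potency of pump inhibitors that raise cellular JC-1 green fluorescence up to the nicardipine level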
Melanocortin receptor 4 = Melanocortin receptor 4 (Homo sapiens, UniProt P32245); assay type: functional, cell-based;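 note: Cell-based assay with luminescence read-out, confirmatory dose-response testing for agonist activity of biased ligands at MC4R; human U2OS cells with tagged receptor and beta-arrestin; potency of agonists that increase receptor coupling to beta-arrestin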
Melanocortin receptor 4, sequence (P32245 whole entry): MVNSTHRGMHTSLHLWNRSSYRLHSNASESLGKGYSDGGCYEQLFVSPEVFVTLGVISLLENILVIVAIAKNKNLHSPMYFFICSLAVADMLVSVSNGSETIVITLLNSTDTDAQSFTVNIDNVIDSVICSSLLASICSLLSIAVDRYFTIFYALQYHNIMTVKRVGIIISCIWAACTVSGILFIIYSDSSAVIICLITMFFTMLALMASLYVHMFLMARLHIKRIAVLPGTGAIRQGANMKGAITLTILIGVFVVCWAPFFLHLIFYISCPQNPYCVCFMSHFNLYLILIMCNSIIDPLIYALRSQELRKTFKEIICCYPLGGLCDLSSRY

[5] = blockers of CAL PDZ–TMR peptide complex – biochemical, fluorescence polarization, untagged CAL PDZ, cherry-pick, set 2, dose response (AID 602254); assay type: functional
Bcl-2-related protein A1 = biological target: T2, Bcl-2-related protein A1 (Mus musculus, UniProt Q07440); assay type: functional;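 note: confirmatory dose–response counterscreen on Bfl-1, used to check hits from a UBC13 polyubiquitin inhibitor campaign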
T2 sequence (Q07440 whole entry): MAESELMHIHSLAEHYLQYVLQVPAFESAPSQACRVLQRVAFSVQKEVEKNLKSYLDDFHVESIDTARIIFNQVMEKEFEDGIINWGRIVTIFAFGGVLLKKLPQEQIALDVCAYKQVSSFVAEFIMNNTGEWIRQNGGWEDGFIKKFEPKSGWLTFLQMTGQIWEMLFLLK

[6] = biological target: T3, Ubiquitin-conjugating enzyme E2 N (Homo sapiens, UniProt P61088); assay type: functional
T3 sequence (P61088 whole entry): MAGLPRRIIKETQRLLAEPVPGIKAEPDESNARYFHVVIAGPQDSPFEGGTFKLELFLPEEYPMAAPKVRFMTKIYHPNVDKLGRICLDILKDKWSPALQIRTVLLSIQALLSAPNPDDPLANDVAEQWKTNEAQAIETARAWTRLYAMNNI

[7] = biological target: Intestinal-type alkaline phosphatase (Mus musculus, UniProt P24822); test: PubChem AID 488785; assay type: functional
Intestinal-type alkaline phosphatase (Mus musculus, UniProt P24822), sequence (P24822 whole entry): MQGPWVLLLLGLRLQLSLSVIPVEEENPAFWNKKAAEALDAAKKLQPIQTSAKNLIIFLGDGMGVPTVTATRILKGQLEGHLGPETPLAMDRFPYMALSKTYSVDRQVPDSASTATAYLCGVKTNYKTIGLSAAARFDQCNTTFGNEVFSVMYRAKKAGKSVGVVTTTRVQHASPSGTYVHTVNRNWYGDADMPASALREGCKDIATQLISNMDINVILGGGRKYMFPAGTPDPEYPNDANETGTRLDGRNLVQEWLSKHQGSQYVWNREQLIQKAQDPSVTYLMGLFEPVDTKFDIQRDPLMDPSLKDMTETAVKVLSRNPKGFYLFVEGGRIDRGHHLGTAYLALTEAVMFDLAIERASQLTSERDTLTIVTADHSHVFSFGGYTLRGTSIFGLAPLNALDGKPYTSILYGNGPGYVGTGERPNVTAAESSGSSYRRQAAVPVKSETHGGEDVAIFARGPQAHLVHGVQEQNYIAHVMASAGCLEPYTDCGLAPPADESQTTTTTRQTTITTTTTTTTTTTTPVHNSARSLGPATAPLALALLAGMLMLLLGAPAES

[8] = biological target: T3, Ubiquitin-conjugating enzyme E2 N; assay type: functional; remark: listed apart in the source
[9] = biological target: T4, Alkaline phosphatase, tissue-nonspecific isozyme (Homo sapiens, UniProt P05186); test: TNAP enzyme inhibition by screening hits, dose response, selectivity assay for mouse IAP inhibitor project, biochemical, human TNAP, uHTS hits (AID 488906); assay type: functional
T4 sequence (P05186 whole entry): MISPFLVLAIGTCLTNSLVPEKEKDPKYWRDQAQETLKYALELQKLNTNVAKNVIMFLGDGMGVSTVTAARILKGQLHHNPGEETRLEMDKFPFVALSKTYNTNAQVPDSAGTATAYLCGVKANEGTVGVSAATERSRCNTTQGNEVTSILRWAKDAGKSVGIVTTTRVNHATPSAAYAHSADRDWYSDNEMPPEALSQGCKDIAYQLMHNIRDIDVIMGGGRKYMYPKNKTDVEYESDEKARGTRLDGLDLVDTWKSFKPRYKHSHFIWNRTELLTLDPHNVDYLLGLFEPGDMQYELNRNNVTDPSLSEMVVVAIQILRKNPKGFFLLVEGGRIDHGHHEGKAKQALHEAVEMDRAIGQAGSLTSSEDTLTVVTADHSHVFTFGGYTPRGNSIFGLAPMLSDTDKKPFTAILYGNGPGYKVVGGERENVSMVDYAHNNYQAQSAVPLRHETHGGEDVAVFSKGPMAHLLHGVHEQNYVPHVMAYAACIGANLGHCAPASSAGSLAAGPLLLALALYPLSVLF

[10] = biological target: Intestinal-type alkaline phosphatase (Homo sapiens, UniProt P09923); test: inhibition of human intestinal alkaline phosphatase – biochemical, dose response (AID 488876); assay type: functional
Intestinal-type alkaline phosphatase (Homo sapiens, UniProt P09923), sequence (P09923 whole entry): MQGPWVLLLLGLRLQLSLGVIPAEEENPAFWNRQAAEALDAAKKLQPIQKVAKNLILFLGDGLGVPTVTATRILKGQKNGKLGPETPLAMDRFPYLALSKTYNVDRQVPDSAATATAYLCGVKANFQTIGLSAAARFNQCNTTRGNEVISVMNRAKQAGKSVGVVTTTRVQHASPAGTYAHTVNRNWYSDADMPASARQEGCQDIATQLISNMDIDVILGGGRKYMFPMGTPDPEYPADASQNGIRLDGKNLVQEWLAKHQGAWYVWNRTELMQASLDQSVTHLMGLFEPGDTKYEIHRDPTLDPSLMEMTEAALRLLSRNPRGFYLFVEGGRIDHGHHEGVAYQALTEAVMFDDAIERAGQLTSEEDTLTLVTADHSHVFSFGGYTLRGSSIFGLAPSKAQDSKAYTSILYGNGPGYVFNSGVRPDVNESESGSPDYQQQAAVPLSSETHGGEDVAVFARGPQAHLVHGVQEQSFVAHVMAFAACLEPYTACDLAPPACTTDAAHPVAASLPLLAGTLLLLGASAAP

Insulin-degrading enzyme [11] = biological target: T5, Insulin-degrading enzyme (Homo sapiens, UniProt P14735); test: recombinant IDE activation, cell-free – biochemical, fluorescence polarization, counter-screen for IDE activator project, dose response (AID 588681)
T5 sequence (P14735 whole entry): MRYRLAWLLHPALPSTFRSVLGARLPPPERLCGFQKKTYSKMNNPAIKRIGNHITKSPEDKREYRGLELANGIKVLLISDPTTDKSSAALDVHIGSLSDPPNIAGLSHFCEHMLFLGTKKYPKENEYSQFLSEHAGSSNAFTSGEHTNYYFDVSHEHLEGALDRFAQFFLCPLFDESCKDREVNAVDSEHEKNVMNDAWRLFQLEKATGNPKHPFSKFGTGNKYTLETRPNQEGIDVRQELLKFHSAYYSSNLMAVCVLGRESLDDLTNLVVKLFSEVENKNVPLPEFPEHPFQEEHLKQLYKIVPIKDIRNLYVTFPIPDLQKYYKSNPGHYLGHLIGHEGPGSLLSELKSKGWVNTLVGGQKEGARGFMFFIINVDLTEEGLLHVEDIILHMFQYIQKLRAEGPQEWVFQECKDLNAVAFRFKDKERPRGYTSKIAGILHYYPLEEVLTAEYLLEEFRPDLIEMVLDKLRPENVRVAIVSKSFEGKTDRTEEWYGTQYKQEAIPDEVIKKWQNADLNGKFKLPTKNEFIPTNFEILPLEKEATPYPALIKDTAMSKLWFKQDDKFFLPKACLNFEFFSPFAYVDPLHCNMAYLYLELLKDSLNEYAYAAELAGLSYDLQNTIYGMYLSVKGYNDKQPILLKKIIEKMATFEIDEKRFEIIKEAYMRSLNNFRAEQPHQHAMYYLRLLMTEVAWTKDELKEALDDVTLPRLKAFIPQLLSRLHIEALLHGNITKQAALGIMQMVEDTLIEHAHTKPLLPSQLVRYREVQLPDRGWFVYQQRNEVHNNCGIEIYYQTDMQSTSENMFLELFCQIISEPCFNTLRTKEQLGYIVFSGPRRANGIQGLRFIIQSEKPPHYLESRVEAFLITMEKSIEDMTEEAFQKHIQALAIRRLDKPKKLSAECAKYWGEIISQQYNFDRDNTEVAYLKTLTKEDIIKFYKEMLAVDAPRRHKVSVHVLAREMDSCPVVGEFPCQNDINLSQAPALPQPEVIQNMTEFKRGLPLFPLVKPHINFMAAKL

Insulin-degrading enzyme [12] = biological target: T5, Insulin-degrading enzyme; test: cellular IDE activation of Abeta substrate cleavage – fluorescence polarization, HEK cells, dose response (AID 588439); assay type: functional, cell-based
HEK293 [13] = test: membrane integrity loss in HEK cells – cell-based, fluorescence, cytotoxicity control for IDE activator project, dose response (AID 588440); assay type: functional; settings: Homo sapiens;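 note: cytotoxicity by LDH release measuring loss of membrane integrity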
HEK293 [14] = test: optical interference in Abeta FP readout, dose response, artefact control for IDE activator project, biochemical, fluorescence polarization (AID 588442); assay type: functional, cell-based; settings: Homo sapiens

Structure (SMILES): COc1ccccc1CNC(=O)C(CC(C)C)NC(=O)C1CCC(C)CC1 (stereo unspecified)
IC50 [2]: 0.21 µM (active)

Structure (SMILES): Cc1ccc(-c2nc(C)sc2CC(=O)OCC(=O)Nc2ccc(F)c(Cl)c2)cc1
AC50 [5]: 110 µM (active)

Structure (SMILES): C#CCOCCOCCOCCNc1nc(N2CCN(C(=O)CCCCCCCCCCNC(=O)Cn3cc(CCCCCN)nn3)CC2)nc(N2CCN(C(=O)CCCCCCCCCCNC(=O)[C@@H](CCSC)n3cc(CCO)nn3)CC2)n1
IC50 (Bcl-2-related protein A1): 18.5 µM (active)
IC50 [6]: 6.59 µM (active)
IC50 [7]: 6.92 µM (active)
IC50 [8]: 4.6 µM (active)
IC50 [9]: > 100 µM (inactive)
IC50 [10]: > 100 µM (inactive)
EC50 (Insulin-degrading enzyme [11]): > 54.7 µM (inactive)
EC50 (Insulin-degrading enzyme [12]): > 6.08 µM (active)
IC50 (HEK293 [13]): 14.5 µM (inactive)
EC50 (HEK293 [14]): > 54.7 µM (inactive)

The remaining lines, values ahead:

IC50 [1]: 1.86 µM (active)
Structure (SMILES): CC(C)(C)NC(=O)C(c1cc2ccccc2o1)n1c(=O)c(-c2ccco2)nc2ccccc21 (stereo unspecified)

EC50 [3]: 7.76 µM (active)
EC50 [4]: 6.31 µM (active)
Structure (SMILES): O=C(c1ccco1)N1CCN(c2c3c(nc4cc(-c5cccc(F)c5)nn24)CCC3)CC1

EC50 (Melanocortin receptor 4): > 89.2 µM (inactive)
Structure (SMILES): Cc1ccc(C(=O)Nc2nc(C(N)Cc3ccc(C(F)(F)F)cc3)cs2)cc1 (stereo unspecified)
